Assay [1] has as its system Beet Armyworm (Spodoptera exigua) ("BAW"). The experiment in a line: Bioassay on beet armyworm (BAW), 128-well diet tray assay. The format is in vivo. As to conditions: for pest or weed control at 50 µg/cm2: activity rating class, read-out: BAW (Biological Results, Insect species); for mortality at 50 µg/cm2: 168 h, 50 μg/cm^2 on artificial diet, second instar BAW larvae, 25° C., five to seven days, average of eight wells, read-out: BAW % Control (or Mortality) rating. An outline of the steps: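 Percent mortality, averaged across eight wells, was read after five to seven days at 25° C. under 14:10 light-dark. Each well held one to five second-instar larvae on artificial diet that had been treated with 50 μg/cm^2 compound in 90:10 acetone-water and dried.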

The test system of assay [2] is Cabbage Looper (Trichoplusia ni) ("CL"). The assay is described as follows: Bioassay on cabbage looper (CL), 128-well diet tray assay. The format is in vivo. To be noted: for pest or weed control at 50 µg/cm2: activity rating class, read-out: CL (Biological Results, Insect species); for mortality at 50 µg/cm2: 168 h, 50 μg/cm^2 on artificial diet, second instar CL larvae, 25° C., five to seven days, average of eight wells, read-out: CL % Control (or Mortality) rating. An outline of the steps: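 Percent mortality, averaged across eight replicate wells, was read after five to seven days at 25 °C under a 14:10 photoperiod. Each well held one to five second-instar T. ni on diet carrying a dried 50 μg/cm^2 dose applied in acetone-water 90:10.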

Like-named read-outs stand apart in the source and are kept apart here.

Drawing on patent US9783532B2, “Molecules having certain pesticidal utilities, and intermediates, compositions, and processes related thereto” (Dow AgroSciences LLC, priority 2013, dated 2017), this text covers pest or weed control and mortality for 23 molecules.

Turning to `Cc1ccccc1N1C(=O)CS/C1=N\C(=O)NCc1cccc(-c2ncn(-c3ccc(OC(F)(F)F)cc3)n2)c1` [FB27, (Z)-1-(4-oxo-3-(o-tolyl)thiazolidin-2-ylidene)-3-(3-(1-(4-(trifluoromethoxy)phenyl)-1H-1,2,4-triazol-3-yl)benzyl)urea], the pest or weed control at 50 µg/cm2 in assay [1] (Table ABC (FB)) and in assay [2] (Table ABC (FB)) was 50 to 100% each time.
As for `Cc1ccc(C(C)C)c(N2C(=O)CS/C2=N\C(=O)N[C@H](C)Cc2ccc(-c3ncn(-c4ccc(OC(F)(F)F)cc4)n3)cc2)c1` [FB45, (R,Z)-1-(3-(2-isopropyl-5-methylphenyl)-4-oxothiazolidin-2-ylidene)-3-(1-(4-(1-(4-(trifluoromethoxy)phenyl)-1H-1,2,4-triazol-3-yl)phenyl)propan-2-yl)urea], the pest or weed control at 50 µg/cm2 in assay [1] (Table ABC (FB)) and in assay [2] (Table ABC (FB)) was 50 to 100% in each case.
On to `Cc1ccc(N2C(=O)CS/C2=N\C(=O)NCCCc2cccc(-c3ncn(-c4ccc(OC(F)(F)F)cc4)n3)c2)c(C(C)C)c1` [P128, (Z)-1-(3-(2-isopropyl-4-methylphenyl)-4-oxothiazolidin-2-ylidene)-3-(3-(3-(1-(4-(trifluoromethoxy)phenyl)-1H-1,2,4-triazol-3-yl)phenyl)propyl)urea], for which the mortality at 50 µg/cm2 in assay [1] and in assay [2] was 50 to 100% in each case.
For `Cc1ccc(C(C)C)c(NC(=S)NC(=O)NCc2ccc(-c3ncn(-c4ccc(OC(F)(F)C(F)(F)F)cc4)n3)cc2)c1` [F16], the mortality at 50 µg/cm2 in assay [1] and in assay [2] was 50 to 100% each time.
Consider `CCc1ccc(C)cc1N1C(=O)CS/C1=N\C(=O)NCc1ccc(-c2ncn(-c3ccc(OC(F)(F)F)cc3)n2)cc1` [P7, (Z)-1-(3-(2-ethyl-5-methylphenyl)-4-oxothiazolidin-2-ylidene)-3-(4-(1-(4-(trifluoromethoxy)phenyl)-1H-1,2,4-triazol-3-yl)benzyl)urea], for which the mortality at 50 µg/cm2 in assay [1] and in assay [2] was 50 to 100% each time.
For `Cc1ccccc1NC(=S)NC(=O)NCCCCc1cccc(-c2ncn(-c3ccc(OC(F)(F)F)cc3)n2)c1` [PC170, 1-(o-tolylcarbamothioyl)-3-[4-[3-[1-[4-(trifluoromethoxy)phenyl]-1H-1,2,4-triazol-3-yl]phenyl]butyl]urea], the pest or weed control at 50 µg/cm2 lay in the range of 0 to 50% in assay [1] (Table ABC (PC)) and 50 to 100% in assay [2] (Table ABC (PC)).
On to `Cc1ccccc1N1C(=O)CS/C1=N\C(=O)NCc1ccc(-c2ncn(-c3ccc(OC(F)(F)F)cc3)n2)cc1` [P1, (Z)-1-(4-oxo-3-(o-tolyl)thiazolidin-2-ylidene)-3-(4-(1-(4-(trifluoromethoxy)phenyl)-1H-1,2,4-triazol-3-yl)benzyl)urea], for which the mortality at 50 µg/cm2 in assay [1] and in assay [2] was 50 to 100% throughout.
In the case of `CCc1ccc(C)cc1N1/C(=N/C(=O)NCCc2ccc(-c3ncn(-c4ccc(OC(F)(F)F)cc4)n3)cc2)SCC1C` (stereo not shown) [FB55, (Z)-1-(3-(2-ethyl-5-methylphenyl)-4-methylthiazolidin-2-ylidene)-3-(4-(1-(4-(trifluoromethoxy)phenyl)-1H-1,2,4-triazol-3-yl)phenethyl)urea], the pest or weed control at 50 µg/cm2 in assay [1] (Table ABC (FB)) and in assay [2] (Table ABC (FB)) was 50 to 100% each time.
On to `CCc1ccccc1N1C(=O)CS/C1=N\C(=O)NCCc1ccc(-c2ncn(-c3ccc(OC(F)(F)F)cc3)n2)cc1C` [FB6, (Z)-1-(3-(2-ethylphenyl)-4-oxothiazolidin-2-ylidene)-3-(2-methyl-4-(1-(4-(trifluoromethoxy)phenyl)-1H-1,2,4-triazol-3-yl)phenethyl)urea], for which the pest or weed control at 50 µg/cm2 in assay [1] (Table ABC (FB)) and in assay [2] (Table ABC (FB)) was 50 to 100% each time.
As for `COc1ccc(C(C)C)c(N2C(=O)CS/C2=N\C(=O)NCCc2ccc(-c3ncn(-c4ccc(OC(F)(F)F)cc4)n3)cc2C)c1` [FB4, (Z)-1-(3-(2-isopropyl-5-methoxyphenyl)-4-oxothiazolidin-2-ylidene)-3-(2-methyl-4-(1-(4-(trifluoromethoxy)phenyl)-1H-1,2,4-triazol-3-yl)phenethyl)urea], the pest or weed control at 50 µg/cm2 in assay [1] (Table ABC (FB)) and in assay [2] (Table ABC (FB)) was 50 to 100% each time.
In the case of `Cc1ccccc1NC(=S)NC(=O)NCCCc1ccc(-c2ncn(-c3ccc(OC(F)(F)F)cc3)n2)cc1` [PC92, 1-(o-tolylcarbamothioyl)-3-[3-[4-[1-[4-(trifluoromethoxy)phenyl]-1H-1,2,4-triazol-3-yl]phenyl]propyl]urea], the pest or weed control at 50 µg/cm2 in assay [1] (Table ABC (PC)) and in assay [2] (Table ABC (PC)) was 50 to 100% throughout.
For the molecule `CC(C)c1ccccc1N1C(=O)CS/C1=N\C(=O)NCc1ccc(-c2ncn(-c3ccc(C(F)(F)F)cc3)n2)cc1` [P14, (Z)-1-(3-(2-isopropylphenyl)-4-oxothiazolidin-2-ylidene)-3-(4-(1-(4-(trifluoromethyl)phenyl)-1H-1,2,4-triazol-3-yl)benzyl)urea], the mortality at 50 µg/cm2 in assay [1] and in assay [2] was 50 to 100% throughout.
As for `CCCc1ccc(C)cc1N1C(=O)CS/C1=N\C(=O)NCCCc1cccc(-c2ncn(-c3ccc(OC(F)(F)F)cc3)n2)c1` [P125, (Z)-1-(3-(5-methyl-2-propylphenyl)-4-oxothiazolidin-2-ylidene)-3-(3-(3-(1-(4-(trifluoromethoxy)phenyl)-1H-1,2,4-triazol-3-yl)phenyl)propyl)urea], the mortality at 50 µg/cm2 in assay [1] and in assay [2] was 50 to 100% each time.
On to `COc1ccc(NC(=S)NC(=O)NC2CC2c2ccc(-c3ncn(-c4ccc(OC(F)(F)F)cc4)n3)cc2)c(C)c1` (stereo not shown) [F26], for which the mortality at 50 µg/cm2 in assay [1] and in assay [2] was 50 to 100% throughout.
`CC(C)c1cc(F)ccc1N1C(=O)CS/C1=N\C(=O)NCc1ccc(-c2ncn(-c3ccc(OC(F)(F)F)cc3)n2)cc1` [P3, P1172, (Z)-1-(3-(4-fluoro-2-isopropylphenyl)-4-oxothiazolidin-2-ylidene)-3-(4-(1-(4-(trifluoromethoxy)phenyl)-1H-1,2,4-triazol-3-yl)benzyl)urea]: the mortality at 50 µg/cm2 in assay [1] and in assay [2] was 50 to 100% in each case.
With `CCc1cccc(C)c1N1C(=O)CS/C1=N\C(=O)NCCCc1cccc(-c2ncn(-c3ccc(OC(F)(F)F)cc3)n2)c1` [P127, (Z)-1-(3-(2-ethyl-6-methylphenyl)-4-oxothiazolidin-2-ylidene)-3-(3-(3-(1-(4-(trifluoromethoxy)phenyl)-1H-1,2,4-triazol-3-yl)phenyl)propyl)urea], the mortality at 50 µg/cm2 in assay [1] and in assay [2] was 50 to 100% each time.
With `CC(Cc1ccc(-c2ncn(-c3ccc(OC(F)(F)F)cc3)n2)cc1)NC(=O)NC(=S)Nc1ccccc1C(C)C` (stereo not shown) [F4, N-[2-(propan-2-yl)phenyl]-N′-[1-(4-{1-[4-(trifluoromethoxy)phenyl]-1H-1,2,4-triazol-3-yl}phenyl)propan-2-yl]dicarbonimidothioic diamide], the mortality at 50 µg/cm2 in assay [1] and in assay [2] was 50 to 100% in each case.
As for `CCc1ccccc1NC(=S)NC(=O)NCCCc1cccc(-c2ncn(-c3ccc(OC(F)(F)F)cc3)n2)c1` [PC119, 1-[(2-ethylphenyl)carbamothioyl]-3-[3-[3-[1-[4-(trifluoromethoxy)phenyl]-1H-1,2,4-triazol-3-yl]phenyl]propyl]urea], the pest or weed control at 50 µg/cm2 in assay [1] (Table ABC (PC)) and in assay [2] (Table ABC (PC)) was 50 to 100% each time.
In the case of `CC(C)c1cc(F)ccc1NC(=S)NC(=O)NCCCCc1ccc(-c2ncn(-c3ccc(OC(F)(F)F)cc3)n2)cc1` [PC155, 1-[(4-fluoro-2-isopropyl-phenyl)carbamothioyl]-3-[4-[4-[1-[4-(trifluoromethoxy)phenyl]-1H-1,2,4-triazol-3-yl]phenyl]butyl]urea], the pest or weed control at 50 µg/cm2 in assay [1] (Table ABC (PC)) and in assay [2] (Table ABC (PC)) was 50 to 100% each time.
Consider `Cc1ccc(NC(=S)NC(=O)NCc2ccc(-c3ncn(-c4ccc(OC(F)(F)F)cc4)n3)cc2)c(C(C)C)c1` [PC5, 1-[(2-isopropyl-4-methyl-phenyl)carbamothioyl]-3-[[4-[1-[4-(trifluoromethoxy)phenyl]-1H-1,2,4-triazol-3-yl]phenyl]methyl]urea], for which the pest or weed control at 50 µg/cm2 in assay [1] (Table ABC (PC)) and in assay [2] (Table ABC (PC)) was 50 to 100% each time.
On to `CCc1ccccc1N1C(=O)CS/C1=N\C(=O)NCCc1cccc(-c2ncn(-c3ccc(OC(F)(F)F)cc3)n2)c1` [P75, (Z)-1-(3-(2-ethylphenyl)-4-oxothiazolidin-2-ylidene)-3-(3-(1-(4-(trifluoromethoxy)phenyl)-1H-1,2,4-triazol-3-yl)phenethyl)urea], for which the mortality at 50 µg/cm2 in assay [1] and in assay [2] was 50 to 100% in each case.
With `Cc1ccc(C(C)C)c(N2C(=O)C(C(C)(C)O)S/C2=N\C(=O)NCCc2ccc(-c3ncn(-c4ccc(OC(F)(F)F)cc4)n3)cc2)c1` (stereo not shown) [FB72, (Z)-1-(5-(2-hydroxypropan-2-yl)-3-(2-isopropyl-5-methylphenyl)-4-oxothiazolidin-2-ylidene)-3-(4-(1-(4-(trifluoromethoxy)phenyl)-1H-1,2,4-triazol-3-yl)phenethyl)urea], the pest or weed control at 50 µg/cm2 in assay [1] (Table ABC (FB)) and in assay [2] (Table ABC (FB)) was 50 to 100% in each case.
`Cc1ccc(C(C)C)c(N2C(=O)CS/C2=N\C(=O)NCCCc2cccc(-c3ncn(-c4ccc(OC(F)(F)F)cc4)n3)c2)c1` [P124, (Z)-1-(3-(2-isopropyl-5-methylphenyl)-4-oxothiazolidin-2-ylidene)-3-(3-(3-(1-(4-(trifluoromethoxy)phenyl)-1H-1,2,4-triazol-3-yl)phenyl)propyl)urea]: the mortality at 50 µg/cm2 in assay [1] and in assay [2] was 50 to 100% in each case.
